Data set [1] can be described thus: Methemoglobin content of blood during adaptation period. The method, then: Blood was sampled at d2, d8, d15, d22 and d28 at 1, 3 and 5 h post-feeding. […] Blood samples were taken in heparin containing collection tubes (Vacutainers) and stored in the refrigerator directly after sampling. At the end of the sampling day, samples were dispatched for analyses and were analyzed the next day.

The subject of data set [2] is methane emissions from enteric fermentation. Description: Methane production in indirect respiration calorimetry chambers. It is filed as in vivo, male Texel Cross lambs. The conditions noted are these: for Actual decrease in methane production as CH4 mass: CH4=0.714 g/l; for Methane production rate over 24 h versus control: fed once daily, nitrate: immediately after feeding, SO4: entire 24 h-period; for Actual decrease in methane production / Reduction in daily methane production: respiration chambers; for Actual decrease in methane production: 24.9 g NO3 or 27.0 g SO4 consumed per day; for Reduction in daily methane production: addition to the diet. An excerpt: Feed intake and growth were monitored during the experiment. […] After the adaptation period four animals (one block) were housed in indirect respiration calorimetry chambers for a week to determine gaseous exchange. In the following weeks a new block of sheep was introduced to the chambers each week. Each respiration chamber housed an individual sheep. The respiration calorimetry chambers used are described in detail in […] et al. (1987). […] Net production or consumption of these gases was calculated from the difference in concentrations between in and outgoing air multiplied by air flow and subsequently recalculated to standard circumstances (0° C., 101 kPa, no water vapour). […] Animals were blocked by weight and subsequently within a block randomly allotted to one of four dietary treatments: CON, NO3, SO4 or NO3+SO4. During the adaptation phase, sheep were introduced to the experimental premixes in steps of 25% per week. […] Before morning feeding, orts were removed from the feed bins and weighed to determine voluntary feed intake. During the week in the respiration chambers, feed availability was restricted to 95% of the feed consumed by the animal consuming the least feed within a block in the week prior to housing in the respiration chambers. Feed restriction was applied to avoid interactions between the effect of the additives on DMI and the effect on methane production.

For data set [3] the following is noted: cited from earlier work.
Data set [4] is described as follows: Blood methaemoglobin in cows supplemented with nitrate and sulphate. The data set is classed as in vivo. Here is the method:
The experiment was a randomized block design, with 4 animals per block and different sulphate doses as treatments. Animals were blocked by milk yield and subsequently within a block randomly allotted to one of four dietary treatments: NO3, NO3+low SO4, NO3+medium SO4, NO3+high SO4.
The dietary additives were included in the premix (table 5). At feeding, the premixes were delivered to cows as part of a Total Mixed Ration. Water was freely available during the experiment.
Blood was sampled 3 h post-feeding twice a week throughout the experiment to closely monitor the concentration of methaemoglobin. Blood was collected into evacuated tubes containing heparin, plunged immediately into ice-cold water and stored in a refrigerator at 4 C. At the end of each sampling day, samples were dispatched for analysis and were analyzed the next day.

A short description of data set [5]: Feed intake, CO2/O2 exchange and heat production in respiration chambers. The data set is classed as in vivo, male Texel Cross lambs. The method, then:
After the adaptation period four animals (one block) were housed in indirect respiration calorimetry chambers for a week to determine gaseous exchange. In the following weeks a new block of sheep was introduced to the chambers each week. Each respiration chamber housed an individual sheep. The respiration calorimetry chambers used are described in detail in […] et al. (1987). […] Net production or consumption of these gases was calculated from the difference in concentrations between in and outgoing air multiplied by air flow and subsequently recalculated to standard circumstances (0° C., 101 kPa, no water vapour). […] Before morning feeding, orts were removed from the feed bins and weighed to determine voluntary feed intake. During the week in the respiration chambers, feed availability was restricted to 95% of the feed consumed by the animal consuming the least feed within a block in the week prior to housing in the respiration chambers. Feed restriction was applied to avoid interactions between the effect of the additives on DMI and the effect on methane production.

For data set [6], the system named is methanogens. Kind of data set: Enteric methanogen counts. To be noted: in vivo.
Data set [7] in a line: Feed intake and growth during the 4-week adaptation to dietary nitrate and sulphate. It is filed as in vivo, male Texel Cross lambs. To be noted: for Feed intake: main effect, additive in diet (Yes); for Effect on body weight gain: adaptation stage; for Body weight (BW) / Body weight gain (BWG) overall / Body weight gain (BWG): main effect (Yes); for Body weight gain (BWG) overall: overall adaptation stage. An excerpt: Feed intake and growth were monitored during the experiment. […] The Animal Care and Use Committee of the Animal Sciences Group, WUR, Lelystad approved the experimental protocol of this experiment. […] During a four-week adaptation phase to the dietary additives, animals were housed in individual calf hutches to allow individual feeding. Sheep were weighed weekly to monitor growth during the entire experiment. […] Animals were blocked by weight and subsequently within a block randomly allotted to one of four dietary treatments: CON, NO3, SO4 or NO3+SO4. […] At feeding, the premixes were hand-mixed into the diets. Water was freely available during the experiment. […] Before morning feeding, orts were removed from the feed bins and weighed to determine voluntary feed intake. During the week in the respiration chambers, feed availability was restricted to 95% of the feed consumed by the animal consuming the least feed within a block in the week prior to housing in the respiration chambers. Feed restriction was applied to avoid interactions between the effect of the additives on DMI and the effect on methane production. […] Limestone was added to the control diet to ensure equal Ca-intake between treatments. MgO was included in the diet to obtain similar Mg-levels between diets. The volume of the different additions to the diets was different for each treatment, and wood cellulose was used to balance for this.

Data set [8] deals with rumen microbes. Kind of data set: In vitro rumen fermentation simulation. The data set is classed as cell-based, cow. Here is the method: Feed used in rumen simulation was 1 gram of dry matter and composed of grass silage (0.5 g dry matter) and commercial compound feed, 0.5 g dry matter. The treatments were as indicate in the following table: […] All the treatments were run in quadruplicates, the total number of simulation vessels being 72. […] Finally, 2 ml of fresh, strained rumen fluid was added in the serum bottles, the final volume being 40 ml. This inoculation started the actual rumen simulation. Inoculation time for each vessel was registered and taken into account when sampling and stopping the fermentation. Rumen fermentation simulation was continued for 12 hours at 37° C. […] These samples were analysed for methane to see the effect of treatments on the total methane produced by rumen bacteria during the 12 hours. The analysis was performed by gas chromatography using flame ionisation detector and pure methane and ethane as standards. NO3 and NO2 were analysed from all simulation vessels at 0, 2, 4 and 12 hours. […] NH4 was analysed from all simulation vessels at 0, 2, 4 and 12 hours. The method was colorimetric and based on phenol-hypochlorite reaction. Statistical analysis consisted of two-tailed t-tests for all measured parameters. The tests were performed against the treatment with […] and MgSO4 amendment (treatments 2 and 17). t-test was chosen to let the individual treatments be independent of the other treatments tested simultaneously.

The values below come from patent US8771723B2, “Compositions for reducing gastro-intestinal methanogenesis in ruminants” (priority 2009, dated 2014).

Values joined by “and” are separate entries in the source; they are usually repeats but may differ in a detail not shown here. Identical values can stand only once. Marks after values point to notes of the source that are not given here. Some results are limits rather than exact numbers.

Turning to 5Ca(NO3)2•NH4NO3•10H2O [Nitrate], in data set [1] (75% of the inclusion rate, 3 h post feeding, one sheep tested positive), the “blood MetHb-content” value is on record as 3 % of Hb. Further, the MetHb-values in data set [1] (100% inclusion rate for one week (d28), 3 h post-feeding, two individual sheep tested positive, listed as NO3) was 7 % of Hb and 3 % of Hb. Moreover, the “MetHb-levels, highest observed” value in data set [1] (whole experiment, detection limit 2% of Hb) is listed as ≤ 7 % of Hb. Also, the “Actual decrease in methane production as CH4 mass” value in data set [2] turned out to be 5.8 g. Also, the “Methane production rate over 24 h versus control” value in data set [2] is “remained at a far lower level”. The “Actual decrease in methane production” value in data set [2] was found to be 8.1 L. In addition, the “Reduction in daily methane production” value in data set [2] is given as 34%. Besides, the MetHb-levels in data set [3] (Sar et al. (2004), 0.9 g NO3/kg^0.75 of BW intraruminally, no adaptation) is 18.4 % of Hb. Moreover, the “rise in blood methaemoglobin” value in data set [4] (100% inclusion rate of nitrate) is given as “more pronounced”. Moreover, the Blood methaemoglobin in data set [4] (cows, diets with 3% NO3 of DM and increasing SO4 (table 5)) is 13.1^a % of haemoglobin. The “Oxygen consumption lower than control” value in data set [5] (directly after feeding at 8 AM) is 10-18%. For the same compound, the “MetHb-levels estimated from oxygen consumption” value in data set [5] (regression equation of Takahashi et al., 1998) is reported as “approximately 5%”. Moreover, in data set [5] (respiration chambers, daily), the “Reduction in oxygen consumption” value amounted to 6%. In data set [6], the “effect on enteric methanogen counts” value is recorded as “reduce enteric methanogen counts”. The Feed intake in data set [7] (Week 1 of adaptation) stood at 2686 g/lamb/day; in data set [7] (Week 2 of adaptation), 2591 g/lamb/day; in data set [7] (Week 3 of adaptation) it was 2526 g/lamb/day; in data set [7] (Week 4 of adaptation) it was 2411 g/lamb/day. For the same compound, the “Effect on body weight gain” value in data set [7] is given as “did not affect body weight gain”. The “Body weight (BW)” value in data set [7] (day 0) is given as 43.0 kg/lamb; in data set [7] (day 7), 43.6 kg/lamb; in data set [7] (day 14), 44.7 kg/lamb; in data set [7] (day 21), 45.2 kg/lamb; in data set [7] (day 28) it was 45.5 kg/lamb. Moreover, the “Body weight gain (BWG) overall” value in data set [7] is on record as 2.46 kg/lamb/week. Further, the Feed intake reduction result in data set [7] (period beyond week 1 (more than 25% of final inclusion rate)) is on record as “approximately 9%”. For the same compound, the “Body weight gain (BWG)” value was 0.54 kg/lamb/week in data set [7] (week 1), 1.08 kg/lamb/week in data set [7] (week 2), 0.59 kg/lamb/week in data set [7] (week 3) and 0.25 kg/lamb/week in data set [7] (week 4). The “suppression of absolute methane production” value in data set [8] (12-hour simulation (FIG. 5A)) is listed as about 80%. Besides, in data set [8] (12-hour simulation, 14 mM nitrate), the total produced methane was 1.5 mL. Also, the “residual concentration of ammonium” value in data set [8] (12 hours, 14 mM nitrate added (FIG. 8C)) is 18 mM.
With `O=[N+]([O-])[O-].[Na+]` [NaNO3, reference compound], in data set [3] (Takahashi et al., 1998, 1.5 g/kg BW^0.75 into the rumen), the “Concentrations of MetHb” value is listed as “over 30%”.
Regarding `O=S(=O)([O-])[O-].[Mg+2]` [Sulphate, MgSO4 (anhydrous)], the “Actual decrease in methane production as CH4 mass” value in data set [2] stood at 2.9 g. For the same compound, in data set [2], the “Methane production rate over 24 h versus control” value was “consistently lower than the control treatment”. In addition, the “Actual decrease in methane production” value in data set [2] is 4 L. Moreover, the “Reduction in daily methane production” value in data set [2] amounted to 19%. The “effect on enteric methanogen counts” value in data set [6] was “does not”. For the same compound, the Feed intake was found to be 2724 g/lamb/day in data set [7] (Week 1 of adaptation), 2770 g/lamb/day in data set [7] (Week 2 of adaptation), 2618 g/lamb/day in data set [7] (Week 3 of adaptation) and 2457 g/lamb/day in data set [7] (Week 4 of adaptation). In data set [7], the “Effect on body weight gain” value is reported as “did not affect body weight gain”. Moreover, the “Body weight (BW)” value amounted to 42.4 kg/lamb in data set [7] (day 0); 43.1 kg/lamb in data set [7] (day 7); 44.3 kg/lamb in data set [7] (day 14); 44.7 kg/lamb in data set [7] (day 21); 44.8 kg/lamb in data set [7] (day 28). The “Body weight gain (BWG) overall” value in data set [7] is 2.34 kg/lamb/week. The “Body weight gain (BWG)” value in data set [7] (week 1) is 0.70 kg/lamb/week; in data set [7] (week 2) it was 1.20 kg/lamb/week; in data set [7] (week 3) it was 0.38 kg/lamb/week; in data set [7] (week 4), 0.06 kg/lamb/week.
Turning to `CC(O)C(=O)O` (centres unmarked) [lactic acid, Na-lactate], in data set [8] (first 4 hours, compared to the nitrate enriched treatment (Calcinit + MgSO4)), the “gas production, initial” value is listed as “suppressed”. The “cumulative gas production, later time points” value in data set [8] (later time points up to 12 h, compared to Calcinit + MgSO4) is recorded as “continued to suppress gas production dose dependently”.
